This assay concerns the target human NEP (Homo sapiens (Human), UniProt P08473). Put plainly: In vitro enzyme inhibition assay at human NEP. Conditions: recombinant human NEP, fluorogenic peptide substrate, 37° C.; for Ki: pKi.

This is an account of results in US9593110B2, “Neprilysin inhibitors” (Theravence Biopharma R&D IP, LLC, priority 2014, dated 2017).

Sequence of human NEP (P08473 52-750): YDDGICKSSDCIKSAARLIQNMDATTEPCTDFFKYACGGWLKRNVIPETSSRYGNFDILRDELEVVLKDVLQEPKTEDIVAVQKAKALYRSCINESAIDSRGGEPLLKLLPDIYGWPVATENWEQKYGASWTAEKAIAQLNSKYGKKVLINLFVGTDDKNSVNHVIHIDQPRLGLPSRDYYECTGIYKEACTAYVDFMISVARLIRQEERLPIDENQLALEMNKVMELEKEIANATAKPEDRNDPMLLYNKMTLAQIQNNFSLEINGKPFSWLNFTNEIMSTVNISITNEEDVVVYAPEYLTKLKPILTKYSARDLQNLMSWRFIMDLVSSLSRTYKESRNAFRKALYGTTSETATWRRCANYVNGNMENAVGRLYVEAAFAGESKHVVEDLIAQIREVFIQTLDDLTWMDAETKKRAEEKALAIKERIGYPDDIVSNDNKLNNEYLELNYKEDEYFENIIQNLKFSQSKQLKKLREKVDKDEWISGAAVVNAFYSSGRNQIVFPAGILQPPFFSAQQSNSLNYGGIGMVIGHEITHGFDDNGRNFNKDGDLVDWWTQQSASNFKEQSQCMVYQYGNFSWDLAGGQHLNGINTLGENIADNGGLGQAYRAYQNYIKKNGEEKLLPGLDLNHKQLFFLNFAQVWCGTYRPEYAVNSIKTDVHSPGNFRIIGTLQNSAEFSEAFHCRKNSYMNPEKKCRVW
Procedure: The inhibitory activities of compounds at human and rat neprilysin (EC 3.4.24.11; NEP) and human angiotensin converting enzyme (ACE) were determined using in vitro assays as described below.
The assays were performed in 384-well white opaque plates at 37° C. using the fluorogenic peptide substrates at a concentration of 10 μM in Assay Buffer (NEP: 50 mM HEPES, pH 7.5, 100 mM NaCl, 0.01% polyethylene glycol sorbitan monolaurate (Tween-20), 10 μM ZnSO4; ACE: 50 mM HEPES, pH 7.5, 100 mM NaCl, 0.01% Tween-20, 1 μM ZnSO4).
Test compounds were assayed over the range of concentrations from 10 μM to 20 pM. Test compounds were added to the enzymes and incubated for 30 minute at 37° C. prior to initiating the reaction by the addition of substrate.
Plates were read on a fluorometer with excitation and emission wavelengths set to 320 nm and 405 nm, respectively Inhibition constants were obtained by nonlinear regression of the data using the equation (GraphPad Software, Inc., San Diego, Calif.): v=v0/[1+(I/K′)] where v is the reaction rate, v0 is the uninhibited reaction rate, I is the inhibitor concentration and K′ is the apparent inhibition constant.

By Ki is commonly meant a dissociation constant, usually derived from enzyme kinetics or from competition with a known ligand. Turning to `O=C(N[C@H](Cc1ccc(-c2cc(Cl)ccc2F)cc1)CC(C(=O)O)c1cccs1)c1cnn[nH]1` (stereo in doubt) [Example 78, (S)-5-(5′-Chloro-2′-fluorobiphenyl-4-yl)-2-thiophen-2-yl-4-[(3H-[1,2,3]triazole-4-carbonyl)amino]pentanoic Acid], the Ki was 1.26 to 3.16 nM.

As for `COC[C@H](C[C@@H](Cc1ccc(-c2cc(Cl)ccc2F)cc1)NC(=O)c1ccc(Cl)cn1)C(=O)O` [Example 2-12, (2S,4S)-5-(5′-Chloro-2′-fluorobiphenyl-4-yl)-4-[(5-chloro-pyridine-2-carbonyl)-amino]-2-methoxymethylpentanoic acid], the pKi entry was “≧9.0”.

As to `O=C(N[C@H](Cc1ccc(-c2cc(Cl)ccc2F)cc1)C[C@@H](CN1CCOCC1)C(=O)O)c1c[nH]nn1` [Example 69a, (2S,4S)-5-(5′-Chloro-2′-fluorobiphenyl-4-yl)-2-morpholin-4-ylmethyl-4-[(1H-[1,2,3]triazole-4-carbonyl)amino]pentanoic Acid], the Ki was 1.26 to 3.16 nM.

Regarding `NC(=O)C[C@@H](C[C@@H](Cc1ccc(-c2cccc(F)c2)cc1)NC(=O)c1cnn[nH]1)C(=O)O` [Example 54, (2R,4S)-2-Carbamoylmethyl-5-(3′-fluorobiphenyl-4-yl)-4-[(3H-[1,2,3]triazole-4-carbonyl)amino]pentanoic Acid], the Ki lay within 1.26 to 3.16 nM.

Consider `CC(C)c1coc(C(=O)N[C@H](Cc2ccc(-c3cc(Cl)ccc3F)cc2)C[C@@H](NC(=O)[C@@H](N)CO)C(=O)O)n1` [Example 42-2, (2R,4R)-2-((S)-2-Amino-3-hydroxypropionylamino)-5-(5′-chloro-2′-fluorobiphenyl-4-yl)-4-[(4-isopropyloxazole-2-carbonyl)amino]pentanoic Acid], for which the Ki was in the range of 1.26 to 3.16 nM.

For `NCCCC[C@H](N)C(=O)N[C@H](C[C@@H](Cc1ccc(-c2cc(Cl)ccc2F)cc1)NC(=O)c1cnn[nH]1)C(=O)O` [Example 56, (2R,4R)-5-(5′-Chloro-2′-fluorobiphenyl-4-yl)-2-((S)-2,6-diaminohexanoylamino)-4-[(3H-[1,2,3]triazole-4-carbonyl)amino]pentanoic Acid], the Ki is 1.26 to 3.16 nM.

Turning to `CC(=O)N[C@H](C[C@@H](Cc1ccc(-c2ccccc2)cc1)NC(=O)c1c[nH]nn1)C(=O)O` [Example 26, (2R,4R)-2-Acetylamino-5-biphenyl-4-yl-4-[(1H-[1,2,3]triazole-4-carbonyl)amino]pentanoic Acid], the Ki lay in the range of 3.16 to 10 nM.

Turning to `CCOC[C@H](C[C@@H](Cc1ccc(-c2ccccc2)cc1)NC(=O)c1c[nH]nn1)C(=O)O` [Example 10, (2S,4S)-5-Biphenyl-4-yl-2-ethoxymethyl-4-[(1H-[1,2,3]triazole-4-carbonyl)amino]pentanoic Acid], the pKi result was “≧9.0”.

On to `COC(=O)N[C@H](C[C@@H](Cc1ccc(-c2cc(Cl)ccc2F)cc1)NC(=O)c1ncco1)C(=O)O` [Example 30-3, (2R,4R)-5-(5′-Chloro-2′-fluoro-biphenyl-4-yl)-2-methoxycarbonylamino-4-[(oxazole-2-carbonyl)amino]pentanoic acid], for which the pKi entry is given as “≧9.0”.

Consider `Cc1cnc(C(=O)N[C@H](Cc2ccc(-c3cc(Cl)ccc3F)cc2)C[C@@H](CN)C(=O)O)o1` [Example 21-3, (2S,4S)-2-Aminomethyl-5-(5′-chloro-2′-fluorobiphenyl-4-yl)-4-[(5-methyl-oxazole-2-carbonyl)amino]pentanoic acid], for which the pKi result was “≧9.0”.

As for `CCOc1nc(C(=O)N[C@H](Cc2ccc(-c3cc(Cl)ccc3F)cc2)C[C@@H](CN)C(=O)O)co1` [Example 21-4, (2S,4S)-2-Aminomethyl-5-(5′-chloro-2′-fluorobiphenyl-4-yl)-4-[(2-ethoxy-oxazole-4-carbonyl)amino]pentanoic acid], the inhibition constant Ki is 1.26 to 3.16 nM.

In the case of `COCc1cc(C(=O)N[C@H](Cc2ccc(-c3cc(Cl)ccc3F)cc2Cl)C[C@@H](N)C(=O)O)no1` [Example 18-7, (2R,4R)-2-Amino-5-(3,5′-dichloro-2′-fluorobiphenyl-4-yl)-4-[(5-methoxymethylisoxazole-3-carbonyl)amino]pentanoic acid], the Ki was 10 to 31.6 nM.

Consider `Cc1cnc(C(=O)N[C@H](Cc2ccc(-c3cc(Cl)ccc3F)cc2Cl)C[C@H](N)C(=O)O)o1` [Example 18-4, (2S,4R)-2-Amino-5-(3,5′-dichloro-2′-fluorobiphenyl-4-yl)-4-[(5-methyloxazole-2-carbonyl)amino]pentanoic acid], for which the Ki fell in the range of 3.16 to 10 nM.

Regarding `CC(=O)c1cc(C(=O)N[C@H](Cc2ccc(-c3cc(Cl)ccc3F)cc2)C[C@@H](N)C(=O)O)[nH]n1` [Example 16-9, (2R,4R)-4-[(5-Acetyl-2H-pyrazole-3-carbonyl)amino]-2-amino-5-(5′-chloro-2′-fluoro-biphenyl-4-yl)pentanoic acid], the pKi result is “≧9.0”.

In the case of `COC[C@H](C[C@@H](Cc1ccc(-c2cc(Cl)ccc2F)cc1)NC(=O)c1noc(=O)[nH]1)C(=O)O` [Example 2-11, (2S,4S)-5-(5′-Chloro-2′-fluorobiphenyl-4-yl)-2-methoxymethyl-4-[(5-oxo-4,5-dihydro-[1,2,4]oxadiazole-3-carbonyl)amino]pentanoic acid], the pKi entry is recorded as “≧9.0”.

In the case of `CCc1cc(C(=O)N[C@H](Cc2ccc(-c3cc(Cl)ccc3F)cc2)C[C@@H](N)C(=O)O)on1` [Example 16-1, (2R,4R)-2-Amino-5-(5′-chloro-2′-fluorobiphenyl-4-yl)-4-[(3-ethylisoxazole-5-carbonyl)-amino]pentanoic acid], the Ki lay within 1.26 to 3.16 nM.

For `COC[C@H](C[C@@H](Cc1ccc(-c2cc(Cl)ccc2F)cc1)NC(=O)c1ncco1)C(=O)O` [Example 2-7, (2S,4S)-5-(5′-Chloro-2′-fluorobiphenyl-4-yl)-2-methoxymethyl-4-[(oxazole-2-carbonyl)amino]pentanoic acid], the pKi entry is on record as “≧9.0”.

For `CC(C)c1coc(C(=O)N[C@H](Cc2ccc(-c3cc(Cl)ccc3F)cc2)C[C@@H](NC(=O)[C@@H](C)N)C(=O)O)n1` [Example 36-2, (2R,4R)-2-((R)-2-Aminopropionylamino)-5-(5′-chloro-2′-fluorobiphenyl-4-yl)-4-[(4-isopropy-oxazole-2-carbonyl)-amino]pentanoic Acid], the Ki lay within 1.26 to 3.16 nM.

On to `CN(C)CC(=O)N[C@H](C[C@@H](Cc1ccc(-c2cc(Cl)ccc2F)cc1)NC(=O)c1cnn[nH]1)C(=O)O` [Example 64, (2R,4R)-5-(5′-Chloro-2′-fluorobiphenyl-4-yl)-2-(2-dimethylaminoacetylamino)-4-[(3H-[1,2,3]triazole-4-carbonyl)amino]pentanoic Acid], for which the Ki lay within 1.26 to 3.16 nM.

For `COC[C@H](C[C@@H](Cc1ccc(-c2cccc(Br)c2)cc1)NC(=O)c1cnn[nH]1)C(=O)O` [Example 80, (2S,4S)-5-(3′-Bromobiphenyl-4-yl)-2-methoxymethyl-4-[(3H-[1,2,3]triazole-4-carbonyl)amino]pentanoic Acid], the pKi entry is “≧9.0”.

Take `N[C@@H](C[C@@H](Cc1ccc(-c2cc(Cl)ccc2F)cc1)NC(=O)c1cc(O)no1)C(=O)O` [Example 16-27, (2S,4R)-2-Amino-5-(5′-chloro-2′-fluorobiphenyl-4-yl)-4-[(3-hydroxyisoxazole-5-carbonyl)amino]pentanoic acid]: the Ki was in the range of 1.26 to 3.16 nM.

In the case of `CCOC[C@H](C[C@@H](Cc1ccc(-c2cccc(Cl)c2)cc1)NC(=O)c1cc(OC)no1)C(=O)O` [Example 9-4, (2S,4S)-5-(3′-Chlorobiphenyl-4-yl)-2-ethoxymethyl-4-[(3-methoxy-isoxazole-5-carbonyl)amino]pentanoic acid], the pKi entry is “≧9.0”.

For the molecule `CC(C)(N)[C@H](C[C@@H](Cc1ccc(-c2cc(Cl)ccc2F)cc1)NC(=O)c1cnn[nH]1)C(=O)O` [Example 104, (2S,4S)-2-(1-Amino-1-methylethyl)-5-(5′-chloro-2′-fluorobiphenyl-4-yl)-4-[(3H-[1,2,3]triazole-4-carbonyl)amino]pentanoic Acid], the pKi entry is listed as “≧9.0”.

As for `COC[C@H](C[C@@H](Cc1ccc(-c2cc(Cl)ccc2F)cc1)NC(=O)c1c[nH]c(=O)o1)C(=O)O` [Example 2-10, (2S,4S)-5-(5′-Chloro-2′-fluorobiphenyl-4-yl)-2-methoxymethyl-4-[(2-oxo-2,3-dihydro-oxazole-5-carbonyl)amino]pentanoic acid], the Ki was in the range of 1.26 to 3.16 nM.

In the case of `O=C(N[C@H](Cc1ccc(-c2cc(Cl)ccc2F)cc1)C[C@@H](CN1CC[C@H]1CO)C(=O)O)c1cnn[nH]1` [Example 95b, (2S,4S)-5-(5′-Chloro-2′-fluorobiphenyl-4-yl)-2-((S)-2-hydroxymethyl-azetidin-1-ylmethyl)-4-[(3H-[1,2,3]triazole-4-carbonyl)amino]pentanoic Acid], the Ki is not above 1 nM.

As to `CC(C)c1coc(C(=O)N[C@H](Cc2ccc(-c3cc(Cl)ccc3F)cc2)C[C@@H](NC(=O)CN)C(=O)O)n1` [Example 34-1, (2R,4R)-2-(2-Aminoacetylamino)-5-(5′-chloro-2′-fluorobiphenyl-4-yl)-4-[(4-isopropyloxazole-2-carbonyl)amino]pentanoic acid], the Ki is 1.26 to 3.16 nM.

For `COC[C@H](C[C@@H](Cc1ccc(-c2cc(Cl)ccc2F)cc1)NC(=O)c1[nH]nc(C2CC2)c1F)C(=O)O` [Example 2-3, (2S,4S)-5-(5′-Chloro-2′-fluorobiphenyl-4-yl)-4-[(5-cyclopropyl-4-fluoro-2H-pyrazole-3-carbonyl)amino]-2-methoxymethylpentanoic acid], the Ki is 1.26 to 3.16 nM.
